Laboratory results: patent US4668499A, “Process for manufacturing hydrogen peroxide” (E. I. Du Pont de Nemours and Company, priority 1986, dated 1987)
Read-outs that look alike come from different tables or passages of the source.

Tests used:
[1] = 35% aqueous hydrogen peroxide
[2] = cited from earlier work
[3] = activity in anthrone reoxidation (disappearance of 2-butylanthrone in fortified working solution under oxygen; liquid chromatography); conditions: 0.1 weight % amine, 60° C.; for % Original Amount Remaining After 24 Hours: 2-Butylanthrone: 2 weight % 2-butylanthrone, control (no amine) 76
[4] = amine stability to oxidation under plant extraction-stage conditions (35 weight % aqueous hydrogen peroxide, 60° C., 24 hours; gas chromatography); conditions: 0.1 weight % amine in working solution, shaken with equal volume 35 weight % aqueous hydrogen peroxide
pKa of the amines = type: physicochemical; conditions: in 50/50 methanol/water; acid titration using glass electrode
From the text: ^(1) pKa values in water from Patai, S., "The Chemistry of Amino
Groups,", Interscience Publishers, New York, New York (1968), Chapter 4.
^(2) pKa values in 50/50 methanol/water determined by acid
titration using glass electrode.

[5] = pilot plant cyclic anthraquinone process with amine addition
Experimental: A pilot plant facility, sized to be approximately 1/1000 that of a commercial unit, was charged with 1.5M lbs. of working solution withdrawn from the commercial unit. The working solution comprised a mixture of butyl and amyl anthraquinones and tetrahydroanthraquinones dissolved in a Cyclosol®/diisobutylcarbinol solvent. Using plant Pd/Al2 O3 slurry catalyst in the hydrogenator, operation of the pilot plant was commenced with a working solution flow of about 1.5 g.p.m. and at about 50° C. The average titer of the reduced working solution leaving the hydrogenator was about 38. "Titer" is an industrial term used as a measure of the depth or degree of reduction of the working solution, that is, the amount of hydroquinone formed expressed as LB. MOLS/10,000 gallons of working solution. Thirty-eight titer represents driving conditions for a commercial facility which is usually operated at 32 titer or less. As operating titer is increased, experience has shown that hydrogen peroxide production is increased but at the expense of increased quinone degradation and quinone use.
Over an initial operating period of two months in the pilot plant without amine addition, the anthrone content of the working solution increased steadily from 0.2 wt. % to 0.7 wt. % and was accompanied by a corresponding decrease in the quinone content of the working solution. Then, 0.05 wt. % of N,N-di-n-butylaniline was added to the pilot plant working solution hold tank. Over the next 36 hours a rapid drop in the anthrone content to about 0.2 wt. % was observed.
Operation of the pilot plant was continued at the 38 titer level for a further four and a half months with a daily production of about 250 lbs. hydrogen peroxide. The N,N-di-n-butylaniline content of the working solution was maintained at about 0.03 wt. % by means of small daily additions. […] Other operating parameters such as yield and product quality were unaffected.

[6] = in water, from Patai, The Chemistry of Amino Groups (1968), Chapter 4

% Original Amount Remaining After 24 Hours: 2-Butylanthrone [3] [%]	% Original Amount Remaining After 24 Hours: Amine [4] [%]	pKa (pKa of the amines)	SMILES	further results
			Cc1cccc(N)c1 [Example 2, m-Toluidine]	% Original Amount Remaining After 24 Hours: Amine [1]: 7%; pKa ([2]; water): 4.7
82	96		c1ccc(Nc2ccccc2)cc1 [Example 3, Diphenylamine, reference compound]	pKa [2, 6]: 0.9
64	83		c1ccc(CN(Cc2ccccc2)Cc2ccccc2)cc1 [Example 4, Tribenzylamine, reference compound]	
36	86	5.0	CCCCCCN(CCCCCC)c1ccccc1 [Example 6, N,N--Di-n-hexyl-aniline]	
13	76	5.2	CCCCN(CCCC)c1ccccc1 [Example 7, N,N-di-n-butylaniline]	anthrone content of the working solution after amine addition ([5]; 0.05 wt. % amine added, over the next 36 hours, from 0.7 wt. %, about 50° C., titer about 38): about 0.2 wt. %; hydrogenation activity ([5]; after addition of 0.05 wt. % amine): An improvement in hydrogenation activity was also noted; loss of quinones ([5]; amine maintained at about 0.03 wt. %, four and a half months, 38 titer): no measurable loss of quinones; pKa [2, 6]: 6.2
15	43	5.3	CCN(CC)c1ccccc1C [Example 8, N,N--Diethyl-2-methylaniline]	
11	68	5.6	CCCCCCCCc1ccc(N(CCCC)CCCC)cc1 [Example 9, N,N--Di-n-butyl-4-octylaniline]	
10	71	5.8	CCCCN(CCCC)c1ccc(C)cc1 [Example 10, N,N--Di-n-butyl-4-methylaniline]	
5	55	6.0	CCN(CC)c1cccc(C)c1 [Example 11, N,N--Diethyl-3-methylaniline]	
8	61	6.2	CCCCN(CCCC)c1ccc(C)c(C)c1 [Example 12, N,N--Di-n-butyl-3,4-dimethylaniline]	

SMILES	% Original Amount Remaining After 24 Hours: 2-Butylanthrone [3] [%]	% Original Amount Remaining After 24 Hours: Amine [4] [%]	pKa (pKa of the amines)	further results
CCCCN(CCCC)CCCC [Example 5, Tributylamine, reference compound]	0	2		pKa [2, 6]: 10.9; Reaction was complete in (time) ([3]; 2-butylanthrone reoxidation): three
